SMILES strings stand for the structures. pKi: −log10 of the molar value. Counter-ions that a name gives are not always drawn.

The target in this assay is T1, Human Polθ polymerase domain (aa1820-2590) (Homo sapiens, UniProt O75417).
T1 construct: Human Polθ polymerase domain (aa1820-2590) was expressed in E. Coli; made in house; host or cells: E. coli
T1 sequence (O75417 1820-2590): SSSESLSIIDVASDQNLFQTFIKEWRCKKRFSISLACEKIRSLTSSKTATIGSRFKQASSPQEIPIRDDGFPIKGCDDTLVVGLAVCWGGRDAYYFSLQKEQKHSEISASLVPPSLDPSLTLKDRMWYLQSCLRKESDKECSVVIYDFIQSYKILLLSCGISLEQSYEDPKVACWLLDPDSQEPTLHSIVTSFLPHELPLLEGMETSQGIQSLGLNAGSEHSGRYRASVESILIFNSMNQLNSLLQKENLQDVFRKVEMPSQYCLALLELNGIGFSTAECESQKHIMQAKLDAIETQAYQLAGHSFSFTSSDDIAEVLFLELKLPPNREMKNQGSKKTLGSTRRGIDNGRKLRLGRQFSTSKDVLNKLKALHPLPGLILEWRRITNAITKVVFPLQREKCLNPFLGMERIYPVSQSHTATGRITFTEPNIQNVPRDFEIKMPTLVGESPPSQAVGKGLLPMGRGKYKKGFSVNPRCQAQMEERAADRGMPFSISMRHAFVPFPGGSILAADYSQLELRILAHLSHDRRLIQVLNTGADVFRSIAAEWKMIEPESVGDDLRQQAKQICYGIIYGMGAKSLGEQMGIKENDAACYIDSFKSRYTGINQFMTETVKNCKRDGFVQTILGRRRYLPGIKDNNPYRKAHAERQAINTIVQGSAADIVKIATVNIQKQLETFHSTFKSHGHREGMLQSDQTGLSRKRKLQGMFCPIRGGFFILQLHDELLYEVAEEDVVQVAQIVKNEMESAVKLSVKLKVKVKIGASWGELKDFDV
The experiment in a line: Polθ Polymerase Domain WT KI Assay (PicoGreen). Type of assay: biochemical. The settings on record: 100 nM DNA substrate, 0.156 nM Polθ, initial rates vs inhibitor concentration. A digest of the protocol: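 E. coli-expressed human Polθ polymerase domain (aa1820-2590) on annealed DNA II Short/Long primer-template (1.2:1), in 25 mM Tris pH 7.5, NaCl, 5% glycerol, 0.01% Triton X-100, 0.1 mg/ml BSA, 1 mM DTT, 1% DMSO. EDTA-quenched timepoints to 180 min, PicoGreen fluorescence. Initial rates vs inhibitor concentration fitted four-parameter for KI.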
On to `COCCN1CCN(CCN2C[C@H]3CC(=O)N(c4cc(C(F)(F)F)cc(C)n4)[C@@H]3C(=O)N(C)c3cccc(Cl)c32)CC1` [Example 27, (3aR,11aS)-6-Chloro-5-(2-(4-(2-methoxyethyl)piperazin-1-yl)ethyl)-10-methyl-1-(6-methyl-4-(trifluoromethyl)pyridin-2-yl)-1,3a,4,5,10,11a-hexahydro-2H-benzo[b]pyrrolo[2,3-f][1,4]diazocine-2,11(3H)-dione], for which the negative logarithm of the Ki (pKi) (commonly the Ki on a negative log10 scale, so that one unit is a factor of ten) was 8.88. Next, `Cc1cc(C(F)(F)F)cc(N2C(=O)C[C@@H]3CN(CCN4CCN(C5COC5)CC4)c4c(Cl)cccc4N(C)C(=O)[C@H]32)n1` [Example 28, (3aR,11aS)-6-Chloro-10-methyl-1-(6-methyl-4-(trifluoromethyl)pyridin-2-yl)-5-(2-(4-(oxetan-3-yl)piperazin-1-yl)ethyl)-1,3a,4,5,10,11a-hexahydro-2H-benzo[b]pyrrolo[2,3-f][1,4]diazocine-2,11(3H)-dione]: 8.71; `Cc1cc(C(F)(F)F)cc(N2C(=O)C[C@@H]3CN(CCN4CC5(COC5)C4)c4c(Cl)cccc4N(C)C(=O)[C@H]32)n1` [Example 29, (3aR,11aS)-5-(2-(2-Oxa-6-azaspiro[3.3]heptan-6-yl)ethyl)-6-chloro-10-methyl-1-(6-methyl-4-(trifluoromethyl)pyridin-2-yl)-1,3a,4,5,10,11a-hexahydro-2H-benzo[b]pyrrolo[2,3-f][1,4]diazocine-2,11(3H)-dione]: 8.85. Next, `Cc1cc(C(F)(F)F)cc(N2C(=O)C[C@@H]3CN(CCN4CCN(C)[C@@H](C)C4)c4c(Cl)cccc4N(C)C(=O)[C@H]32)n1` [Example 30, (3aR,11aS)-6-Chloro-5-(2-((S)-3,4-dimethylpiperazin-1-yl)ethyl)-10-methyl-1-(6-methyl-4-(trifluoromethyl)pyridin-2-yl)-1,3a,4,5,10,11a-hexahydro-2H-benzo[b]pyrrolo[2,3-f][1,4]diazocine-2,11(3H)-dione]: 9.42; `Cc1cc(C(F)(F)F)cc(N2C(=O)C[C@@H]3CN(CCN4CC[C@@H](O)C4)c4c(Cl)cccc4N(C)C(=O)[C@H]32)n1` [Example 31, (3aR,11aS)-6-Chloro-5-(2-((R)-3-hydroxypyrrolidin-1-yl)ethyl)-10-methyl-1-(6-methyl-4-(trifluoromethyl)pyridin-2-yl)-1,3a,4,5,10,11a-hexahydro-2H-benzo[b]pyrrolo[2,3-f][1,4]diazocine-2,11(3H)-dione]: 8.58; `Cc1cc(C(F)(F)F)cc(N2C(=O)C[C@@H]3CN(CCN4CC[C@H](O)C4)c4c(Cl)cccc4N(C)C(=O)[C@H]32)n1` [Example 32, (3aR,11aS)-6-Chloro-5-(2-((S)-3-hydroxypyrrolidin-1-yl)ethyl)-10-methyl-1-(6-methyl-4-(trifluoromethyl)pyridin-2-yl)-1,3a,4,5,10,11a-hexahydro-2H-benzo[b]pyrrolo[2,3-f][1,4]diazocine-2,11(3H)-dione]: 8.17. Then `CC(=O)N1CCN(CCN2C[C@H]3CC(=O)N(c4cc(C(F)(F)F)cc(C)n4)[C@@H]3C(=O)N(C)c3cccc(Cl)c32)CC1` [Example 33, (3aR,11aS)-5-(2-(4-Acetylpiperazin-1-yl)ethyl)-6-chloro-10-methyl-1-(6-methyl-4-(trifluoromethyl)pyridin-2-yl)-1,3a,4,5,10,11a-hexahydro-2H-benzo[b]pyrrolo[2,3-f][1,4]diazocine-2,11(3H)-dione], with 8.76; and `Cc1cc(C(F)(F)F)cc(N2C(=O)C[C@@H]3CN(CCN4CCC(O)CC4)c4c(Cl)cccc4N(C)C(=O)[C@H]32)n1` [Example 34, (3aR,11aS)-6-Chloro-5-(2-(4-hydroxypiperidin-1-yl)ethyl)-10-methyl-1-(6-methyl-4-(trifluoromethyl)pyridin-2-yl)-1,3a,4,5,10,11a-hexahydro-2H-benzo[b]pyrrolo[2,3-f][1,4]diazocine-2,11(3H)-dione], with 8.42; and `Cc1cc(C(F)(F)F)cc(N2C(=O)C[C@@H]3CN(CCN4CC[C@H](N(C)C)[C@H](F)C4)c4c(Cl)cccc4N(C)C(=O)[C@H]32)n1` [Example 35, (3aR,11aS)-6-Chloro-5-(2-((3R,4S)-4-(dimethylamino)-3-fluoropiperidin-1-yl)ethyl)-10-methyl-1-(6-methyl-4-(trifluoromethyl)pyridin-2-yl)-1,3a,4,5,10,11a-hexahydro-2H-benzo[b]pyrrolo[2,3-f][1,4]diazocine-2,11(3H)-dione hydrochloride], with 8.96.

For the molecule `Cc1cc(C(F)(F)F)cc(N2C(=O)C[C@@H]3CN(CCN4CCN(S(C)(=O)=O)CC4)c4c(Cl)cccc4N(C)C(=O)[C@H]32)n1` [Example 36, (3aR,11aS)-6-Chloro-10-methyl-1-(6-methyl-4-(trifluoromethyl)pyridin-2-yl)-5-(2-(4-(methylsulfonyl)piperazin-1-yl)ethyl)-1,3a,4,5,10,11a-hexahydro-2H-benzo[b]pyrrolo[2,3-f][1,4]diazocine-2,11(3H)-dione], the negative-log Ki (pKi) is 8.90. On to `Cc1cc(C(F)(F)F)cc(N2C(=O)C[C@@H]3CN(CCN4CCS(=O)(=O)CC4)c4c(Cl)cccc4N(C)C(=O)[C@H]32)n1` [Example 37, (3aR,11aS)-6-Chloro-5-(2-(1,1-dioxidothiomorpholino)ethyl)-10-methyl-1-(6-methyl-4-(trifluoromethyl)pyridin-2-yl)-1,3a,4,5,10,11a-hexahydro-2H-benzo[b]pyrrolo[2,3-f][1,4]diazocine-2,11(3H)-dione], for which the negative logarithm of the Ki (pKi) was 8.76. Next, `Cc1cc(C(F)(F)F)cc(N2C(=O)C[C@@H]3CN(CCN4CCC(C#N)CC4)c4c(Cl)cccc4N(C)C(=O)[C@H]32)n1` [Example 38, 1-(2-((3aR,11aS)-6-Chloro-10-methyl-1-(6-methyl-4-(trifluoromethyl)pyridin-2-yl)-2,11-dioxo-1,2,3,3a,4,10,11,11a-octahydro-5H-benzo[b]pyrrolo[2,3-f][1,4]diazocin-5-yl)ethyl)piperidine-4-carbonitrile]: 8.92; `Cc1cc(C(F)(F)F)cc(N2C(=O)C[C@@H]3CN(CCN4CC[C@H](C#N)C4)c4c(Cl)cccc4N(C)C(=O)[C@H]32)n1` [Example 39, (S)-1-(2-((3aR,11aS)-6-Chloro-10-methyl-1-(6-methyl-4-(trifluoromethyl)pyridin-2-yl)-2,11-dioxo-1,2,3,3a,4,10,11,11a-octahydro-5H-benzo[b]pyrrolo[2,3-f][1,4]diazocin-5-yl)ethyl)pyrrolidine-3-carbonitrile]: 8.38. Consider `Cc1cc(C(F)(F)F)cc(N2C(=O)C[C@@H]3CN(CCN4CC[C@@H](C#N)C4)c4c(Cl)cccc4N(C)C(=O)[C@H]32)n1` [Example 40, (R)-1-(2-((3aR,11aS)-6-Chloro-10-methyl-1-(6-methyl-4-(trifluoromethyl)pyridin-2-yl)-2,11-dioxo-1,2,3,3a,4,10,11,11a-octahydro-5H-benzo[b]pyrrolo[2,3-f][1,4]diazocin-5-yl)ethyl)pyrrolidine-3-carbonitrile], for which the negative-log Ki (pKi) is 8.53. Then `Cc1cc(C(F)(F)F)cc(N2C(=O)C[C@@H]3CN(CCN4CC[C@H](C(=O)N(C)C)C4)c4c(Cl)cccc4N(C)C(=O)[C@H]32)n1` [Example 41, (S)-1-(2-((3aR,11aS)-6-Chloro-10-methyl-1-(6-methyl-4-(trifluoromethyl)pyridin-2-yl)-2,11-dioxo-1,2,3,3a,4,10,11,11a-octahydro-5H-benzo[b]pyrrolo[2,3-f][1,4]diazocin-5-yl)ethyl)-N,N-dimethylpyrrolidine-3-carboxamide], with 8.54; and `Cc1cc(C(F)(F)F)cc(N2C(=O)C[C@@H]3CN(CCN4CC[C@@H](C(=O)N(C)C)C4)c4c(Cl)cccc4N(C)C(=O)[C@H]32)n1` [Example 42, (R)-1-(2-((3aR,11aS)-6-Chloro-10-methyl-1-(6-methyl-4-(trifluoromethyl)pyridin-2-yl)-2,11-dioxo-1,2,3,3a,4,10,11,11a-octahydro-5H-benzo[b]pyrrolo[2,3-f][1,4]diazocin-5-yl)ethyl)-N,N-dimethylpyrrolidine-3-carboxamide], with 8.30. Then `Cc1cc(C(F)(F)F)cc(N2C(=O)C[C@@H]3CN(CCN4CCN5C(=O)COC[C@H]5C4)c4c(Cl)cccc4N(C)C(=O)[C@H]32)n1` [Example 43, (3aR,11aS)-6-Chloro-10-methyl-1-(6-methyl-4-(trifluoromethyl)pyridin-2-yl)-5-(2-((R)-4-oxohexahydropyrazino[2,1-c][1,4]oxazin-8(1H)-yl)ethyl)-1,3a,4,5,10,11a-hexahydro-2H-benzo[b]pyrrolo[2,3-f][1,4]diazocine-2,11(3H)-dione], with 8.52.

The values are drawn from US20260124214A1, “HETEROCYCLIC COMPOUNDS FOR USE IN THE TREATMENT OF CANCER” (ARTIOS PHARMA LIMITED, priority 2021, published 2026).
